Results published in US12115193B2, “Methods of using RARγ agonists for cancer treatment” (Io Therapeutics, Inc., priority 2021, dated 2024).

Legend:
RARγ = target: T1, RARγ (Homo sapiens, UniProt P13631); assay: RARγ transactivation assay (luciferase reporter); assay type: cell-based; conditions: at all tested concentrations (0.5 to 625 nM); receptor not given
T1 construct: expression plasmids encoding the full-length receptors RARα and RARγ; expressed in transfected cells
T1 sequence (P13631 1-454): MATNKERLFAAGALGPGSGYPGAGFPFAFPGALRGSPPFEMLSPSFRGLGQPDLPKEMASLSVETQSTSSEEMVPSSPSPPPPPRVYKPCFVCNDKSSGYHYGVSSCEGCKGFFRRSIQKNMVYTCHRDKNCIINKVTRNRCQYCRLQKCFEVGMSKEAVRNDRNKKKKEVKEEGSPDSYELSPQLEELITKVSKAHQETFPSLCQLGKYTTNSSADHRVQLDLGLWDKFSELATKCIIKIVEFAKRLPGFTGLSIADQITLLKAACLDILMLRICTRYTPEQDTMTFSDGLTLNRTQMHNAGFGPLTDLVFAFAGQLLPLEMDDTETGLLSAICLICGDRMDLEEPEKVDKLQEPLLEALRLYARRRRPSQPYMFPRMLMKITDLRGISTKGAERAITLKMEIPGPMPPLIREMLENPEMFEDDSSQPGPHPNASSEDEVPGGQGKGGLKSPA
Experimental: Transactivation assays were conducted to test the specificity of binding activity of GA1E and GA2E for RARα and RARγ. Retinoic acid receptor transactivation activity and binding efficiencies were determined essentially as described in U.S. Pat. Nos. 5,298,429 and 5,071,773, incorporated by reference herein for all they teach regarding transactivation assays. Transactivation assays employed expression plasmids encoding the full-length receptors RARα and RARγ. Reporter plasmids containing the herpes virus thymidine kinase promoter and the appropriate retinoic acid receptor response element (RAREs) were positioned upstream of an open coding region encoding firefly luciferase.
The ability of GA1E and GA2E to activate RARα and RARγ in a transactivation assay was tested over a concentration range of 0.5 to 625 nM (GA2E) or 0.05 to 3320 nM (GA1E). GA1E induced less than 10% transactivation for RARα across the whole concentration range, but over 50% transactivation for RARγ at concentrations ≥25 nM and over 70% at concentrations 125 nM (FIG. 3A). GA2E induced more than 85% transactivation at all tested concentrations and less than 10% transactivation of RARα at concentrations of ≤25 nM (FIG. 3B).

JIMT-1 cells = assay: NSG-B2M mice implanted with JIMT-1 Her2+ breast cancer cells and human PBMC; assay type: in vivo
Experimental: The NSG-B2M mouse model is a severely immunocompromised animal, combining the lesions non-obese diabetic (NOD), severe combined immunodeficiency (SCID), IL-2 receptor γ null, and β2-microglobulin null. Human tumor cells readily engraft in this model and cells from the human immune system can also be engrafted in order to study various modes of cancer immunotherapy. Thus, one can model a human immune response to a human tumor in this system. Female NSG-B2M mice were injected in the mammary fat pad with 5×10^6 JIMT-1 cells (human breast carcinoma cell line) suspended in 0.1 mL of phosphate-buffered saline (PBS) with an equal volume of Matrigel®. Once tumors reached a volume of 100-200 mm^3, the mice were implanted with 1×10^7 human PBMC by subcutaneous injection into the right flank (pre-randomization). PBMC were obtained from two donors and distributed evenly between groups. When tumors reached an average tumor volume of 200-250 mm^3 (about 3 days post-PBMC injection) animals were matched by tumor volume into treatment and control groups, and dosing initiated. This first day of dosing was defined as Day 0. The mice were administered a daily oral dose of 10 mL/kg of 10% dimethyl sulfoxide (DMSO) in PBS as vehicle control or 10 mg/kg of GA2E dissolved in 10% DMSO in PBS as the treatment.
Tumor volume was measured twice weekly and on the day a study endpoint was reached. The mice were also weighed twice weekly and on the day a study endpoint was reached.
Study endpoint was defined as when the mean tumor volume of the control group (uncensored) reaches 1500 mm^3. If this occurs before Day 28, treatment groups and individual mice were permitted to be dosed and measured up to Day 28.

LLC cells = assay: LLC syngeneic model in C57BL/6 mice (Example 10); assay type: in vivo
Experimental: The LLC model is based on an epidermoid carcinoma of the lung that spontaneously arose in a C57BL/6 mouse some 70 years ago, Syngeneic models have been useful in predicting clinical benefit. C57BL/6 mice, 6-8 weeks old, were injected subcutaneously in the left flank with 0.1 mL containing 3×10^5 LLC cells. When tumors reached an average tumor volume of 50-150 mm^3, the mice were matched by tumor size and sorted into control and treatment groups, and dosing initiated (Day 0). Three groups of 10 mice each were established: vehicle control, 10 mg/kg GA2E, and 25 mg/kg GA2E. The mice received one oral dose per day for 13 days. Tumor volumes and weight were measured on days 0, 2, 4, 6, 9, 11, and 13. This study was ended on Day 13, as the average tumor volume was >1500 mm^3, and the tumors analyzed by flow cytometry. Two animals in the 10 mg/kg group and one animal in the 25 mg/kg group were terminated early due to ulceration of the tumor.

TIL in LLC tumors = assay: Flow cytometry of LLC tumors, Day 13; assay type: in vivo, mouse
From the text: The mice were sacrificed on Day 13 of the study and the tumors collected and analyzed by flow cytometry. Statistical analysis was by ordinary one-way ANOVA with Tukey's test for significance comparison between groups. Gates were set to identify single cells by forward light scatter, live cells as single cells based on side scatter and staining with the vital stain Fixable Viability Dye eFluor™ 780, white blood cells from live cells based on side scatter and staining with anti-CD45, lymphocytes from white blood cells based on side and forward light scatter, and total T lymphocytes (tot T) from lymphocytes based on side scatter and staining with anti-CD3. Total T lymphocytes were divided into CD4^+ (TH) and CD8^+ (TC) lymphocytes based on staining with and anti-CD4 and CD8 antibodies and subsets assessed (FIG. 20). The following observations were made on a per-mg of tumor tissue basis.

[1] = 10 mg/kg oral daily for 13 days
[2] = 25 mg/kg oral daily for 13 days

Structure (SMILES): CC1(C)CCC(C)(C)c2cc(C(/C=C/c3ccc(C(=O)O)cc3F)=N/O)ccc21 [GA2E, 3-fluoro-4-((1E,3E)-3-(hydroxyimino)-3-(5,5,8,8-tetramethyl-5,6,7,8-tetrahydronaphthalen-2-yl)prop-1-en-1-yl)benzoic acid]
- transactivation (RARγ): more than 85%
- tumor volume after drug holiday started on Day 13 (JIMT-1 cells; 10 mg/kg daily oral until Day 12, then drug holiday): tumor shrinkage subsequent to Day 19
- tumor growth while the mice were receiving drug (JIMT-1 cells; 10 mg/kg daily oral, Day 0 to Day 12): No impact on tumor growth
- weight loss (JIMT-1 cells; 10 mg/kg daily oral, by Day 12): > 10%
- tolerability (LLC cells; [1]): well tolerated
- tumor growth (LLC cells; [1]): inhibited tumor growth
- weight loss over the course of the study (LLC cells; [1]): minimal weight loss
- tolerability (LLC cells; [2]): less well tolerated
- tumor growth (LLC cells; [2]): inhibited tumor growth
- weight loss (LLC cells; 25 mg/kg oral daily, by about Day 10): exceeding 10%
- proportion of Treg cells as a percentage of total T cell (TIL in LLC tumors; P<0.001): significantly reduced
- concentration of T helper cells (TIL in LLC tumors; per mg tumor, 10 and 25 mg/kg): did not change significantly
- concentration of T regulatory cells (TIL in LLC tumors; per mg tumor, 10 and 25 mg/kg): did not change significantly
- concentration of central memory CD8+ T cells (TIL in LLC tumors; per mg tumor, 10 and 25 mg/kg): did not change significantly
- concentration of naïve CD8+ T cells (TIL in LLC tumors; per mg tumor, 10 and 25 mg/kg): did not change significantly
- concentration of total CD4+ T cells (TIL in LLC tumors; per mg tumor, 10 and 25 mg/kg): did not change significantly
- concentration of effector memory CD8+ T cells (TIL in LLC tumors; per mg tumor, P<0.01 for the 25 mg/kg dosage): increased
- concentration of cytotoxic cells (CD8, intracellular IFN-γ) (TIL in LLC tumors; per mg tumor, P<0.05 for the 25 mg/kg dosage): increased
- concentration of total CD8+ lymphocytes in tumor (TIL in LLC tumors; per mg tumor, vs controls, P<0.05 for the 25 mg/kg dosage): increased
